Values after ≈ are worked out from the molar mass of the structure shown. Like-named read-outs stand apart in the source and are kept apart here.
Tests used:
MMP9 activity = assay: PMA-induced MMP9 activation in U937 cells (gelatin zymography); assay type: cell-based, human
Description: Effects of macrolides on phorbol 12-myristate 13-acetate (PMA)-induced MMP9 activation in U937 cells. […] After 48 h supernatants were collected for zymography. MMP9 enzyme activity was measured by gelatin zymography. Data are expressed relative to standard.
The human monocytic cell line U937 was obtained from the American Type Culture Collection (ATCC, Rockville, Md.). PBMCs from COPD patients were obtained from Brompton hospital and separated by AccuSPIN (Sigma-Aldrich). Cells were cultured in complete growth medium (RPMI 1640) (Sigma-Aldrich) supplemented with 10% fetal bovine serum (FBS) and 1% L-glutamine at 37° C. in a humidified atmosphere with 5% CO2. U937 cells were differentiated into adherent macrophage-like morphology by exposure to PMA (50 ng/mL) for 48 hrs in complete growth medium. Cell viability was assessed microscopically by trypan blue staining. Cell toxicity was determined by MTT assay as needed. This study was approved by the ethics committee of the Royal Brompton Hospitals, and all subjects gave written informed consent.
MMP9 enzyme activity was measured by gelatin zymography. Cell culture supernatants were diluted with equal amount of Laemli sample buffer (Bio-Rad, Hertfordshire, UK) and loaded on a Novex® 10% Zymogram (Gelatin) gel (Invitrogen Ltd, Paisley, UK). After electrophoresis, gels were incubated and rinsed with Novex® zymogram renaturing buffer (Invitrogen) for 30 min at room temperature. The gels were then rinsed in Novex® zymogram developing buffer (Invitrogen) for 30 min at room temperature prior to overnight incubation in the developing buffer at 37° C. After incubation, the gels were stained using a Colloidal Blue Staining Kit (Invitrogen) to visualize the zymogen bands.
The results were expressed as the mean±SEM. Comparisons of data in two groups were performed using the Student's t test or the Wilcoxon signed rank test. Multiple comparisons were made by one-way ANOVA with post hoc test (Dunnett's) as appropriate. The difference was considered significant at p<0.05. IC50 values (50% inhibitory concentration) for macrolides for production of cytokines or MMP9 were calculated using Prism 4.0 (GraphPad Software Inc., San Diego, Calif.).

P. aeruginosa PAO1 = assay: MIC by microdilution with PaβN or EGTA, wild-type strain; assay type: cell-based
Description: (§1) MICs of 36 clinical and laboratory strains of PA with known efflux phenotype are measured by microdilution in cation-adjusted Muller-Hinton broth (CA-MHB) or in RPMI medium (commonly used in eukaryotic cell culture). Phe-Arg-β-naphthylamide (PaβN, 50 mg/L) and EGTA 5 mM are used to inhibit efflux pumps and alter OM integrity, respectively. P. aeruginosa strain ATCC PAO1 is used as reference. PA12 is a clinical strain overexpressing the 4 main efflux systems (MexAB, MexCD, MexEF, MexXY), PA403 is a laboratory strain deleted in the genes coding for the 4 efflux systems. A series of reference strains or of clinical isolates for which the expression of genes coding for efflux pumps is known is also used for MICs determinations. MICs are measured by microdilution in MH broth or in RPMI medium (used for eukaryotic cells culture) supplemented with 10% of fetal calf serum, or in MH broth supplemented by increasing amounts of serum. EGTA (5 mM) was used as a chelating agent (disrupting outer membrane integrity) and PaβN (50 mg/L) as an unspecific efflux inhibitor.

P. aeruginosa PA12 = assay: MIC by microdilution with PaβN or EGTA, clinical isolate overexpressing efflux pumps; assay type: cell-based
Description: as §1

[1] = tested on: MRSA strains from CF patients; assay: Microdilution MICs against 40 MRSA strains from CF patients; assay type: cell-based, S. aureus; details: for MIC50 / MIC90: 40 MRSA strains from CF patients
Description: Two strains each of mucoid P. aeruginosa (both pyocyanin positive) and […] MRSA (only one strain with gold colonies) isolated from patients at a CF clinic were tested. Additionally, 2 B. cepacia strains were acquired, from Hershey Medical Center. All strains were identified by standard methods. Only one strain per patient was tested. MLVA was done on all strains to examine clonality, and confirmed that examination is not taking place on only one or a few clones. Strains will be stored in skim milk at −70° C. until use.
Original MICs of each strain to CEM-101 and other comparators were tested by CLSI microdilution methodology. Trays were obtained from Trek, Inc., Cleveland, Ohio. Time-kill macrobroth MIC dilution by CLSI was performed for all synergy testing.

[2] = Homo sapiens, U-937, read-out: IC50, PMA-induced MMP9 activation
[3] = Pseudomonas aeruginosa, PAO1, PAO1, CA-MHB, EGTA 5 mM, read-out: MIC
[4] = Pseudomonas aeruginosa, PAO1, PAO1, CA-MHB, PaβN 50 mg/L, read-out: MIC
[5] = Pseudomonas aeruginosa, PAO1, PAO1, CA-MHB, control conditions (CT)
[6] = Pseudomonas aeruginosa, PAO1, PAO1, RPMI, EGTA 5 mM, read-out: MIC
[7] = Pseudomonas aeruginosa, PAO1, PAO1, RPMI, PaβN 50 mg/L, read-out: MIC
[8] = Pseudomonas aeruginosa, PAO1, PAO1, RPMI, control conditions (CT), read-out: MIC
[9] = Pseudomonas aeruginosa, PA12, PA12, CA-MHB, EGTA 5 mM
[10] = Pseudomonas aeruginosa, PA12, PA12, CA-MHB, PaβN 50 mg/L
[11] = Pseudomonas aeruginosa, PA12, PA12, CA-MHB, control conditions (CT)
[12] = Pseudomonas aeruginosa, PA12, PA12, RPMI, EGTA 5 mM
[13] = Pseudomonas aeruginosa, PA12, PA12, RPMI, PaβN 50 mg/L
[14] = Pseudomonas aeruginosa, PA12, PA12, RPMI, control conditions (CT)
[15] = Staphylococcus aureus, read-out: MIC50
[16] = Staphylococcus aureus, read-out: MIC90

| SMILES | inhibitory effect on MMP9 activity, lower than CEM-101 (MMP9 activity) | IC50 (MMP9 activity; [2]) | MIC (P. aeruginosa PAO1; [3]) | MIC (P. aeruginosa PAO1; [4]) | MIC (P. aeruginosa PAO1; [5]) | MIC (P. aeruginosa PAO1; [6]) | MIC (P. aeruginosa PAO1; [7]) | MIC (P. aeruginosa PAO1; [8]) | MIC (P. aeruginosa PA12; [9]) | MIC (P. aeruginosa PA12; [10]) | MIC (P. aeruginosa PA12; [11]) | MIC (P. aeruginosa PA12; [12]) | MIC (P. aeruginosa PA12; [13]) | MIC (P. aeruginosa PA12; [14]) | MIC50 [1, 15] | MIC90 [1, 16] | also measured |
| --- | --- | --- | --- | --- | --- | --- | --- | --- | --- | --- | --- | --- | --- | --- | --- | --- | --- |
| CC[C@H]1OC(=O)[C@H](C)[C@@H](O[C@H]2C[C@@](C)(OC)[C@@H](O)[C@H](C)O2)[C@H](C)[C@@H](O[C@@H]2O[C@H](C)C[C@H](N(C)C)[C@H]2O)[C@](C)(O)C[C@@H](C)CN(C)[C@H](C)[C@@H](O)[C@]1(C)O [AZM, azithromycin] | 10 fold | 212 µM | 8 µg/mL (≈ 10.7 µM) | 4 µg/mL (≈ 5.34 µM) | 128 µg/mL (≈ 171 µM) | 0.25 µg/mL (≈ 0.334 µM) | 4 µg/mL (≈ 5.34 µM) | 2 µg/mL (≈ 2.67 µM) | 256 µg/mL (≈ 342 µM) | 2 µg/mL (≈ 2.67 µM) | 256 µg/mL (≈ 342 µM) | 0.5 µg/mL (≈ 0.668 µM) | 2 µg/mL (≈ 2.67 µM) | 2 µg/mL (≈ 2.67 µM) | ≥ 32 µg/mL | ≥ 32 µg/mL | – |
| CC[C@H]1OC(=O)[C@@](C)(F)C(=O)[C@H](C)[C@@H](O[C@@H]2O[C@H](C)C[C@H](N(C)C)[C@H]2O)[C@](C)(OC)C[C@@H](C)C(=O)[C@H](C)[C@H]2N(CCCCn3cc(-c4cccc(N)c4)nn3)C(=O)O[C@]12C [CEM-101, solithromycin] | – | – | – | – | – | – | – | – | – | – | – | – | – | – | – | – | IC50 (MMP9 activity; read-out: IC50, PMA-induced MMP9 activation): 14.9 ± 3.1 µM; MIC (P. aeruginosa PAO1; PAO1, CA-MHB, EGTA 5 mM): 8 µg/mL (≈ 9.47 µM); MIC (P. aeruginosa PAO1; PAO1, CA-MHB, PaβN 50 mg/L): 8 µg/mL (≈ 9.47 µM); MIC (P. aeruginosa PAO1; PAO1, CA-MHB, control conditions (CT)): 32 µg/mL (≈ 37.9 µM); MIC (P. aeruginosa PAO1; PAO1, RPMI, EGTA 5 mM): 1 µg/mL (≈ 1.18 µM); MIC (P. aeruginosa PAO1; PAO1, RPMI, PaβN 50 mg/L): 2 µg/mL (≈ 2.37 µM); MIC (P. aeruginosa PAO1; PAO1, RPMI, control conditions (CT)): 2 µg/mL (≈ 2.37 µM); MIC (P. aeruginosa PA12; PA12, CA-MHB, EGTA 5 mM): 16 µg/mL (≈ 18.9 µM); MIC (P. aeruginosa PA12; PA12, CA-MHB, PaβN 50 mg/L): 4 µg/mL (≈ 4.73 µM); MIC (P. aeruginosa PA12; PA12, CA-MHB, control conditions (CT)): 32 µg/mL (≈ 37.9 µM); MIC (P. aeruginosa PA12; PA12, RPMI, EGTA 5 mM): 1 µg/mL (≈ 1.18 µM); MIC (P. aeruginosa PA12; PA12, RPMI, PaβN 50 mg/L): 4 µg/mL (≈ 4.73 µM); MIC (P. aeruginosa PA12; PA12, RPMI, control conditions (CT)): 4 µg/mL (≈ 4.73 µM); MICs against the strains it was active against ([1]; 21 of the 40 MRSA strains): 0.06 to 0.25 µg/mL; share of strains against which active ([1]; 21 of the 40 MRSA strains, MICs 0.06-0.25): 52.5%; MIC50 [1]: 0.25 µg/mL; MIC90 [1]: ≧16 μg/mL; MICs against the remaining organisms ([1]; remaining 19 of 40 MRSA strains): ≥ 16 µg/mL |
| CC[C@H]1OC(=O)[C@H](C)[C@@H](O[C@H]2C[C@@](C)(OC)[C@@H](O)[C@H](C)O2)[C@H](C)[C@@H](O[C@@H]2O[C@H](C)C[C@H](N(C)C)[C@H]2O)[C@](C)(OC)C[C@@H](C)C(=O)[C@H](C)[C@@H](O)[C@]1(C)O [CLR, clarithromycin] | 10 fold | 118 µM | – | 8 µg/mL (≈ 10.7 µM) | 512 µg/mL (≈ 685 µM) | 32 µg/mL (≈ 42.8 µM) | 4 µg/mL (≈ 5.35 µM) | 32 µg/mL (≈ 42.8 µM) | – | 16 µg/mL (≈ 21.4 µM) | 512 µg/mL (≈ 685 µM) | 2 µg/mL (≈ 2.67 µM) | 16 µg/mL (≈ 21.4 µM) | 16 µg/mL (≈ 21.4 µM) | ≥ 32 µg/mL | ≥ 32 µg/mL | – |
| CC[C@H]1OC(=O)[C@H](C)[C@@H](O[C@H]2C[C@@](C)(OC)[C@@H](O)[C@H](C)O2)[C@H](C)[C@@H](O[C@@H]2O[C@H](C)C[C@H](N(C)C)[C@H]2O)[C@](C)(O)C[C@@H](C)C(=O)[C@H](C)[C@@H](O)[C@]1(C)O [ERY, erythromycin] | – | – | – | 16 µg/mL (≈ 21.8 µM) | 512 µg/mL (≈ 698 µM) | 32 µg/mL (≈ 43.6 µM) | 32 µg/mL (≈ 43.6 µM) | 32 µg/mL (≈ 43.6 µM) | 512 µg/mL (≈ 698 µM) | 32 µg/mL (≈ 43.6 µM) | 512 µg/mL (≈ 698 µM) | 2 µg/mL (≈ 2.73 µM) | 32 µg/mL (≈ 43.6 µM) | 32 µg/mL (≈ 43.6 µM) | – | – | effect on MMP9 activity (MMP9 activity): no effect; IC50 (MMP9 activity; Homo sapiens, U-937, at 333 μM, read-out: IC50, PMA-induced MMP9 activation: NE at 333 μM): > 333 µM |
| CC[C@H]1OC(=O)[C@H](C)C(=O)[C@H](C)[C@@H](O[C@@H]2O[C@H](C)C[C@H](N(C)C)[C@H]2O)[C@](C)(OC)C[C@@H](C)C(=O)[C@H](C)[C@H]2N(CCCCn3cnc(-c4cccnc4)c3)C(=O)O[C@]12C [TEL, telithromycin] | – | – | 32 µg/mL (≈ 39.4 µM) | 4 µg/mL (≈ 4.93 µM) | 128 µg/mL (≈ 158 µM) | 1 µg/mL (≈ 1.23 µM) | 4 µg/mL (≈ 4.93 µM) | 2 µg/mL (≈ 2.46 µM) | 32 µg/mL (≈ 39.4 µM) | 4 µg/mL (≈ 4.93 µM) | 128 µg/mL (≈ 158 µM) | 1 µg/mL (≈ 1.23 µM) | 4 µg/mL (≈ 4.93 µM) | 4 µg/mL (≈ 4.93 µM) | – | – | – |
